The values below come from ChEMBL document CHEMBL4330061, “Antitumoral activity of quinoxaline derivatives: A systematic review” (Eur J Med Chem, 2019).

The term IC50 denotes the concentration needed to halve the response being measured.

In assay [1] the test system is A549. The assay is described as follows: Antiproliferative activity against human A549 cells after 48 hrs by MTT assay. The format is functional, cell-based. Conditions: A549, 48 h. For orientation: Formazan colour is commonly taken as a measure of viable cells.
Assay [2] relates to MCF7. The assay is described as follows: Antiproliferative activity against human MCF7 cells after 48 hrs by MTT assay. The assay is classed as functional, cell-based. Conditions: MCF7, 48 h.

Regarding `C#Cc1cccc(Nc2ncnc3cc(OCCOC)c(OCCOC)cc23)c1` [ERLOTINIB], the IC50 in assay [1] was 4.28 µM; in assay [2] it was 2.32 µM.

Regarding `COc1ccc(C2C3CCc4ccc(OC)cc4C3=NN2c2nc3nc4ccccc4nc3s2)cc1` (centres undefined), the IC50 in assay [1] was found to be 3.04 µM; in assay [2], 1.91 µM.
